How the values were obtained:
S. aureus = experiment: Titration of microorganisms with Reichardt's dye on cellulosic towel; design: species or system Staphylococcus aureus; settings: Gram(+), 10^7 CFU/mL, 100 microliters
[1] = Color change of dye with bacterial cell-wall compounds on paper towel; settings: both experimental set-ups; 160 mg/10 mL acetonitrile
E. coli [2] = experiment: Cyclodextrin and Reichardt's dye coated towel exposed to E. coli
Procedure: A SCOTT® paper towel was first coated with hydroxypropyl-beta-cyclodextrin (from Cerestar International, Hammond, Ind., USA) in solution in water (1 gram in 20 milliliters) by dipping and air-drying at ambient temperature. After drying, the coated paper towel was treated with a solution of Reichardt's dye in isopropanol (1 weight percent) and allowed to air-dry. The dried towel was a purple/blue in color. The present inventors believe that the cyclodextrin hindered the crystallization of the dye, thus allowing a more vivid color of the dye to occur on the paper towel. This coated towel was used in a test with gram-negative bacteria (E. coli) and found to turn colorless in less than 5 seconds when an aliquot of 100 microliters of media containing 10,000 CFU per milliliter was applied to the towel. […] The inventors believe that by careful use of a coating (e.g. cyclodextrin), a monolayer coating of the dye may be formed.

E. coli [3] = experiment: Reichardt's dye and TMB coated towel exposed to E. coli suspension; settings: towel coated with Reichardt's dye and TMB

## [O-]c1c(-c2ccccc2)cc(-[n+]2c(-c3ccccc3)cc(-c3ccccc3)cc2-c2ccccc2)cc1-c1ccccc1 [Reichardt's dye, 4-(2,4,6-triphenylpyridinium-1-yl)-2,6-diphenylphenolate]
S. aureus
  Amount of Dye Required for Persistent Color: 90 µL
[1]
  Color change of dye with muramic acid: near instantaneous color change
E. coli [2]; 100 microliters of media containing 10,000 CFU per milliliter
  Time to turn colorless: less than 5 seconds
E. coli [2]; 500 CFU per milliliter
  Time to color change: ≤ 15 s
E. coli [2]; hydroxypropyl-beta-cyclodextrin coated towel
  Bacteria concentration down to which color change occurred: 500 CFU per milliliter
E. coli [3]
  Time to change color to a white spot: less than 10 seconds
